The values below come from US20220304958A1, “SMALL MOLECULE INHIBITORS OF A PROTEIN COMPLEX” (THE REGENTS OF THE UNIVERSITY OF CALIFORNIA, priority 2019, published 2022).

Read-outs that look alike come from different tables or passages of the source. Peptide text beside a SMILES is read from it.

The target of data set [1] is T1, HEG1-KRIT1 interaction (Homo sapiens, UniProt O00522).
T1 construct: His6-EGFP-KRIT1 (WT) FERM domain (417-736) and KRIT1 (L717,721A) mutant were cloned into pETM-11; His6 (N); made in house; host or cells: E. coli BL21 Star (DE3)
T1 sequence (O00522 417-736): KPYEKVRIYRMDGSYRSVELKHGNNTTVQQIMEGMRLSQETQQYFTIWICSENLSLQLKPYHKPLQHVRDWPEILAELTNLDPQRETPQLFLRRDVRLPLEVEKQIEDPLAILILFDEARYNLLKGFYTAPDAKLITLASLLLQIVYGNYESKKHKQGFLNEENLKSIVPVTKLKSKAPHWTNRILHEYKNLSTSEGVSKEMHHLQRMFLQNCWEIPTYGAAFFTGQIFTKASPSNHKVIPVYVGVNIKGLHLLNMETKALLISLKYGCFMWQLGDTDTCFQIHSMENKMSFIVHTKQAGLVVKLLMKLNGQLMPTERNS
Briefly: Flow cytometry assay for the HEG1-KRIT1 FERM domain interaction (competition binding on HEG1 matrix beads). The protocol: Bead Coupling. SPHERO Neutravidin Polystyrene Particles, […] (Spherotech) were washed twice with wash buffer (20 mM Tris, 150 mM NaCl. pH 7.4 containing 0.01% NP-40, and 1 mM EDTA). Prior to incubation with biotin-tagged HEG 1 cytoplasmic tail protein, an appropriate volume of bead slurry was passivated to inhibit non-specific binding by incubation for 30 minutes at room temperature in reaction buffer containing 0.1% BSA (20 mM Tris, 150 mM NaCl, pH 7.4 0.01% NP-40, 1 mM EDTA, 1 mM DTT, and 0.1% BSA). Passivated beads were collected by centrifugation, resuspended to 3,600 particles/μl in reaction buffer and biotinylated HEG1 tail was added to a final concentration of 150 nM and incubated overnight on a rotator at 4° C. The beads were washed three times by centrifugation with ice-cold reaction buffer to remove unbound HEG1 peptide. Beads were diluted such that a final concentration of 2000 beads/μL were available for addition to assay plates.
Flow cytometry assay. A final volume of 100 μl containing 140 nM EGFP-KRIT1 FERM domain, with 10% DMSO or 10% compounds in DMSO, was incubated for 15 minutes at room temperature on a rotator. 100 μl of beads were added to the mixture for a final volume of 200 μl at 1,000 particles/μl with 70 nM EGFP-KRIT1 and incubated for 15 minutes at room temperature on a rotator. The control beads were: without KRIT1 (minimum signal); with KRIT1 (maximum signal); and with KRIT1 plus 2 μM HEG1 7-mer (positive blocking control). The EGFP fluorescence was measured using a BD Accuri flow cytometer. For screening purposes, the final volume of the reaction was scaled down to 10 μl and samples were processed as previously described (27). For FIGS. 1D-1F, 2B, and 3E, a representative experiment is shown of at the least 3 independent repeats.
Assay plate assembly. Plate assays were performed in 384-well microtiter plates (Greiner Bio-one, #784101). Reaction buffer. HEG1-coupled beads, and EGFP-KRIT-FERM constructs were added using a MultiFlo™ Microplate Dispenser (BioTek Instruments, Inc.). Compounds were added to single-point assay plates pre-loaded with reaction buffer using a Biomek^NX liquid handler (BeckmanCoulter) equipped with a […] pintool (V & P Scientific, Inc.). Compound libraries were dispensed to a final concentration of 10 μM. An equal volume (10 nL) of DMSO was added to the vehicle control wells. Following the addition of library compounds, 5 μL of assay buffer was added and the plates were mixed before addition of 5 μL of the protein-coupled bead mixtures; Plates were protected from light and incubated on a rotator for 15 minutes at room temperature. Binding of EGFP-KRIT to HEG1 coupled beads was evaluated using an Accuri C6 flow cytometer.
Data Acquisition. Assay plates were sampled using the HyperCyt™ high throughput flow cytometry platform (Intellicyt; Albuquerque, N. Mex.). During sampling, the probe moves from well to well and samples 1-2 μL from each well pausing 0.4 sec in the air before sampling the next well. The resulting sample stream consisting of 384 separated samples is delivered to an Accuri C6 flow cytometer (BD Biosciences; San Jose, Calif.). Plate data are acquired as time-resolved files that are parsed by software-based well identification algorithms and merged with compound library files. Plate performance was validated using the Z-prime calculation (28).
Compounds that satisfied hit selection criteria in the primary screen were cherry-picked from compound storage plates and tested to confirm activity and determine potency. Dose response data points were fitted by Prism software (GraphPad Software Inc., San Diego, Calif.) using nonlinear least-squares regression in a sigmoidal dose-response model with variable slope, also known as the 4-parameter logistic equation.
Background: In flow cytometry, cells or beads pass a laser one at a time.

For data set [2], the system named is PARD3 binding to HEG1. Briefly: PARD3 pulldown assay with HEG1 matrix. Also noted: species or system human (HUVEC lysates). To be noted: 35 μM compound, HUVEC lysates, HEG1 WT matrix. The protocol: PARD3 pulldown assay. Neutravidin agarose beads (Thermo Fisher) matrix with wild-type HEG1 cytoplasmic tail (1274-1381) and ΔYF (1274-1379) were previously described (5, 26). HUVEC were collected in cold lysis buffer (50 mM Tris-HCl, pH 7.4, 100 mM NaCl, 5 mM MgCl2, 0.5% NP-40) plus protease inhibitor cocktail (Roche). A total of 20 μl of HEG1 matrix was added to 600 μg of clarified lysates and incubated at 4° C. overnight while rotating. All conditions contained either vehicle DMSO, 35 μM HKi2 or 35 μM 2-hydroxy-1-naphthoic acid. After three washes with cold lysis buffer, beads were mixed with sample buffer and proteins were separated by SDS-PAGE. Bound PARD3 was detected by using polyclonal Rabbit anti-PARD3 (Millipore, 07-330) antibody.

In data set [3] the test system is KLF4 and KLF2 mRNA. Briefly: KLF4 and KLF2 mRNA expression in hCMEC/D3 cells by qPCR. The class given is cell-based, human. Conditions: hCMEC/D3, 25 μM, 4 hours. The protocol:
Cell culture. hCMEC/D3 cells at passages 30-37 were grown to confluence on collagen-coated plates and cultured using in EGM-2 MV medium and supplemented with complements obtained from the manufacturer (Lonza) as previously reported (31). HUVEC (Lonza) at passages 4-7 were grown to confluence on gelatin-coated plates and maintained using complete EGM-2 media (Lonza). HKi2, 10 mM in DMSO, was maintained at room temperature for 30 min rotating before use. Cells were then treated with HKi2 at the concentrations and times indicated for each experiment. Vehicle cells were treated with the same volume of DMSO as used with HKi2. Cells were maintained at 37° C. in 95% air and 5% CO2. RNA extraction and qRT-PCR. HUVECs total RNA were isolated using MagMAXTM-96 for Microarrays Total RNA Isolation Kit, according to the manufacturer's protocol (Thermo Fisher Scientific Cat #AM1839). qPCR analysis, single-stranded cDNA was produced from 10 ng RNA isolated from HUVECs using PrimeScriptTM RT Master Mix according to the manufacturer's protocol (Takara Cat. #R[…]). The levels of genes were analyzed using iTaqTM Universal SYBR Green (BioRad Cat #1725122) and thermal cycler (CFX96 Real-Time System; Bio-Rad) according to the manufacturer's protocol. Actin mRNA levels was used as internal control, and the 2^-ΔΔCT method was used for data analysis.
(In general: Real-time PCR tracks product formation cycle by cycle.)

Data set [4] has as its system HUVEC. Briefly: Genome-wide RNA sequencing of HUVEC. In kind it is cell-based, human. To be noted: same conditions (75 μM, 24 h). The protocol:
Cell culture. hCMEC/D3 cells at passages 30-37 were grown to confluence on collagen-coated plates and cultured using in EGM-2 MV medium and supplemented with complements obtained from the manufacturer (Lonza) as previously reported (31). HUVEC (Lonza) at passages 4-7 were grown to confluence on gelatin-coated plates and maintained using complete EGM-2 media (Lonza). HKi2, 10 mM in DMSO, was maintained at room temperature for 30 min rotating before use. Cells were then treated with HKi2 at the concentrations and times indicated for each experiment. Vehicle cells were treated with the same volume of DMSO as used with HKi2. Cells were maintained at 37° C. in 95% air and 5% CO2. Genome-wide RNA sequencing. The quantity (ND-1000 spectrophotometer; NanoDrop Technologies) and quality (Bioanalyzer; Agilent) of total RNA were analyzed. Only RNA with a RNA integrity number (RIN) greater than 8 RNA was used for library preparation. Libraries were generated using Illumina's TruSeq Stranded mRNA Sample Prep kit using 400 ng RNA. RNA libraries were multiplexed and sequenced with 100-bp […] single-end reads (SR100) to a depth of 30 million reads per sample on an Illumina HiSeq2500. Fastq files from RNA-seq experiments were mapped to the human genome (GRCh primary assembly release 96) using Hisat2 with default parameters. All bioinformatics analyses were conducted in R using the […] package RNAseq workflows. Differential gene expression analysis was conducted with EdgeR.

Data set [5] can be described thus: log P. The class given is physicochemical. To be noted: method not stated (FIG. 2A).
A short description of data set [6]: Aqueous solubility in assay buffer. The class given is physicochemical. To be noted: assay buffer, aqueous buffer, in the buffer conditions of the assay.
Where [7] appears, read: Table 2, flow cytometry-screening assay, NI = no inhibition detected up to 500 μM, read-out: IC50.

Regarding `CC(N)c1ccccc1N` (stereo not shown) [Compound 5, 2-(1-aminoethyl)aniline], the IC50 in data set [1] (setting [7]) is more than 500 µM.
Turning to `O=C(O)c1c(O)ccc2ccccc12` [Compound 9, 2-hydroxy-1-naphthoic acid], in data set [2], the “PARD3 binding to HEG1” value is “no effects”. Moreover, in data set [3], the “KLF4 or KLF2 elevation” value is reported as “did not elevate”. Further, the IC50 in data set [1] (setting [7]) is more than 500 µM. Moreover, in data set [4], the “effects on gene expression by RNA-Seq” value is “no significant effects”.
Consider `Oc1ccc2ccccc2c1` [Compound 10, naphthalene-2-ol], for which, in data set [1] (setting [7]), the IC50 is more than 500 µM. Besides, the “effects on gene expression by RNA-Seq” value in data set [4] is given as “no significant effects”.
`O=Cc1ccccc1O` [Compound 16, Salicylaldehyde]: the IC50 is more than 500 µM in data set [1] (setting [7]) and “did not exhibit detectable activity” in data set [1] (inhibition of the HEG1-KRIT1 interaction, flow cytometry assay).
`N=C(N)NCCC[C@H](NC(=O)[C@H](CCCNC(=N)N)NC(=O)[C@H](CCCNC(=N)N)NC(=O)[C@@H](N)CO)C(=O)N[C@@H](CC(=O)O)C(=O)N[C@@H](Cc1ccc(O)cc1)C(=O)N[C@@H](Cc1ccccc1)C(=O)O` [HEG1 C-terminus 7-mer peptide, reference compound] (H-SRRRDYF-OH; N-terminus and C-terminus assumed): the IC50 in data set [1] (blocking of GFP-KRIT1 FERM domain binding to HEG1 matrix beads, read-out: IC50) turned out to be 0.41 µM.
`CC(NC(=O)c1ccccc1N=Cc1c(O)ccc2ccccc12)c1ccccc1` (stereo not shown) [Sirtinol (Hki1), 2-[[(2-hydroxy-1-naphthalenyl)methylene]amino]-N-(1-phenylethyl)-benzamide, reference compound] returned a logP in data set [5] of 5.7. In data set [6], the solubility was less than 50 µM. In data set [1] (inhibition of the HEG1-KRIT1 interaction, flow cytometry assay, read-out: IC50), the IC50 was approximately 10 µM.

As usually defined, the IC50 is the point on the concentration scale where inhibition reaches its midpoint. A word on the logP: it is the decadic logarithm of the partition coefficient of the neutral form, usually between octanol and water. A word on the solubility: it is how much of the substance goes into solution per volume. Read a high solubility as much dissolved substance.
